Measured values: patent US20070254907A1, “COMPOSITIONS AND METHODS FOR CONTROLLING INFESTATION” (HATCHTECH PTY LTD, priority 2003, published 2007)
Entries after “also recorded” stand apart in the source; their conditions may differ. Read-outs that look alike come from different tables or passages of the source.

What was measured:
lice eggs = assay: whole plant or invertebrate; format: in vivo; settings: for H (number of eggs successfully hatched) / Ph (number of eggs partly hatched): per replicate, concentration not given
Plutella xylostella eggs [1] = assay: Reversal of inhibition of Plutella egg hatching by added FeSO4; format: in vivo
Protocol: (§1) Within 24 hours of collection the following experimental design was chosen. Batches of eggs were exposed to 10 mM 6,6′-dimethyl-2,2′-dipyridyl for 2 seconds while additional batches of eggs were exposed to the solvent only (Methanol) for 2 seconds. All batches of eggs were allowed to air dry for 20 minutes at room temperature. The eggs were then given a 2 second exposure to FeSO4 at either 10, 5 or 1 mM, air dried and put in the incubator at 24° C. and allowed to hatch over the next 6 days. In addition, a positive control of 10 mM 6,6′-dimethyl-2,2′-dipyridyl was set up in which eggs were exposed to this compound for 2 seconds, air dried and placed in the incubator.
as §1, with “10 mM 5,5′-dimethyl-2,2′-dipyridyl for 2” for “10 mM 6,6′-dimethyl-2,2′-dipyridyl for 2”, “FeSO4 at 10, 5” for “FeSO4 at either 10, 5”, “put in an incubator at” for “put in the incubator at”, “of 10 mM, 5,5′-dimethyl-2,2′-dipyridyl was set” for “of 10 mM 6,6′-dimethyl-2,2′-dipyridyl was set”

[2] = system: Helicoverpa armigera eggs; assay: Egg hatching of Helicoverpa armigera
Plutella xylostella eggs [3] = assay: whole plant or invertebrate; format: in vivo
Protocol: The ovicidal efficacy of 2-acetyl-1-tetralone was also tested against Plutella eggs.

[4] = system: Lice (L) and Plutella (P) eggs; settings: Lice (L) and Plutella (P)
B. ovis eggs = assay: Egg hatching in Bovicola ovis; format: in vivo; settings: 10 mM; for Number hatched in different replicates: 10 eggs per replicate; for % Inhibition: in comparison to the controls; for Number unhatched: per replicate
Protocol: B. ovis eggs were collected from the wool of sheep that were infested with this parasite. The eggs were collected using forceps and with the aid of a dissecting microscope and placed in 24 well tissue culture plates in duplicate lots of 10 eggs per replicate. The eggs were then exposed to either methanol alone (control) or the test compounds for either 10 minutes or 1 minute before being removed from the wells and placed into individual glass vials containing a diet at the base of the tube. The tubes were placed in plastic containers containing a salt solution (to keep humidity constant at 68%) and the containers maintained at a temperature 32° C. The eggs were monitored for hatching over the following 12 days and % hatch inhibition determined in comparison to the controls.

[5] = 10 mM chelator followed by 2 second exposure to 1 mM FeSO4
[6] = 10 mM chelator followed by 2 second exposure to 5 mM FeSO4
[7] = 10 mM chelator followed by 2 second exposure to 10 mM FeSO4
[8] = 10 mM chelator followed by 2 second exposure to MEOH
[9] = 10 mM chelator, 2 s, (+ve) control without second exposure
[10] = 10 and 1 mM, listed as 6,6′dimethyl-2,2′dipyridyl
[11] = Table 9, 0.001 mM, dipped 2-10 s, day 6 post laying
[12] = Table 9, 0.01 mM, dipped 2-10 s, day 6 post laying
[13] = Table 9, 0.1 mM, dipped 2-10 s, day 6 post laying
[14] = Table 9, 1 mM, dipped 2-10 s, day 6 post laying
[15] = Table 9, 10 mM, dipped 2-10 s, day 6 post laying
[16] = Table 10, eggs laid on cloth, 0.01 mM
[17] = Table 10, eggs laid on cloth, 0.1 mM
[18] = Table 10, eggs laid on cloth, 1 mM
[19] = Table 10, eggs laid on cloth, 10 mM
[20] = Table 11, eggs laid on parafilm, 0.01 mM
[21] = Table 11, eggs laid on parafilm, 0.1 mM
[22] = Table 11, eggs laid on parafilm, 1 mM
[23] = Table 11, eggs laid on parafilm, 10 mM

SMILES: Cc1cccc(-c2cccc(C)n2)n1 [6,6′-dimethyl-2,2′-dipyridyl]
- lice egg hatching (lice eggs; all time points examined (24-120 hr post egg laying)): completely inhibited
- H (number of eggs successfully hatched) (lice eggs; treated 24 hr post egg laying): 0
- Ph (number of eggs partly hatched) (lice eggs; treated 24 hr post egg laying): 0
- H (number of eggs successfully hatched) (lice eggs; treated 48 hr post egg laying): 0
- Ph (number of eggs partly hatched) (lice eggs; treated 48 hr post egg laying): 0
- H (number of eggs successfully hatched) (lice eggs; treated 72 hr post egg laying): 0
- Ph (number of eggs partly hatched) (lice eggs; treated 72 hr post egg laying): 0
- H (number of eggs successfully hatched) (lice eggs; treated 96 hr post egg laying): 0
- Ph (number of eggs partly hatched) (lice eggs; treated 96 hr post egg laying): 0
- H (number of eggs successfully hatched) (lice eggs; treated 120 hr post egg laying): 0
- Ph (number of eggs partly hatched) (lice eggs; treated 120 hr post egg laying): 0
- Number hatched (Plutella xylostella eggs [1]; [5]): 33
- Number unhatched (Plutella xylostella eggs [1]; [5]): 1
- % Inhibition (Plutella xylostella eggs [1]; 10 mM chelator followed by 2 second exposure to 1 mM FeSO4, relative to FeSO4 controls): 3%
- Number hatched (Plutella xylostella eggs [1]; [6]): 25
- Number unhatched (Plutella xylostella eggs [1]; [6]): 0
- % Inhibition (Plutella xylostella eggs [1]; 10 mM chelator followed by 2 second exposure to 5 mM FeSO4, relative to FeSO4 controls): 0%
- Number hatched (Plutella xylostella eggs [1]; [7]): 12
- Number unhatched (Plutella xylostella eggs [1]; [7]): 19
- % Inhibition (Plutella xylostella eggs [1]; 10 mM chelator followed by 2 second exposure to 10 mM FeSO4, relative to FeSO4 controls): 38%
- % Inhibition (Plutella xylostella eggs [1]; [8]): 90%
- Number hatched (Plutella xylostella eggs [1]; [8]): 3
- Number unhatched (Plutella xylostella eggs [1]; [8]): 28
- % Inhibition (Plutella xylostella eggs [1]; [9]): 100%
- Number hatched (Plutella xylostella eggs [1]; [9]): 0
- Number unhatched (Plutella xylostella eggs [1]; [9]): 44
- effect of added Fe in FeSO4 on the chelator's inhibition of egg hatching (Plutella xylostella eggs [1]; 10 mM chelator, then FeSO4 10, 5 or 1 mM): able to reverse the effects
- inhibition of egg hatching after MeOH alone post exposure (Plutella xylostella eggs [1]; 10 mM chelator, then MeOH): significant degree of inhibition of egg hatching
- effect on egg hatching of Helicoverpa armigera (words) ([2]; 0.1 mM): no inhibition of egg hatching was observed
- effect on egg hatching of Helicoverpa armigera (words) ([2]; 10 and 1 mM): significantly inhibit the egg hatching
- effect on egg hatching of Helicoverpa armigera (words) [2, 10]: significantly inhibit egg hatching
- % Inhibition ([2]; Table 12, 0.001 mM, relative to control (100% MeOH)): 0%
- % Inhibition ([2]; Table 12, 0.01 mM, relative to control (100% MeOH)): 0%
- % Inhibition ([2]; Table 12, 0.1 mM, relative to control (100% MeOH)): 0%
- Number hatched ([2]; Table 12, 1 mM): 4
- Number unhatched ([2]; Table 12, 1 mM): 140
- % Inhibition ([2]; Table 12, 1 mM, relative to control (100% MeOH)): 97%
- Number hatched ([2]; Table 12, 10 mM): 7
- Number unhatched ([2]; Table 12, 10 mM): 98
- % Inhibition ([2]; Table 12, 10 mM, relative to control (100% MeOH)): 94%
- Number hatched ([2]; Table 13, 0.1 mM): 70
- Number unhatched ([2]; Table 13, 0.1 mM): 0
- % Inhibition ([2]; Table 13, 0.1 mM, relative to the control (100% MeOH)): 0%
- Number hatched ([2]; Table 13, 1 mM): 2
- Number unhatched ([2]; Table 13, 1 mM): 61
- % Inhibition ([2]; Table 13, 1 mM, relative to the control (100% MeOH)): 97%
- Number hatched ([2]; Table 13, 10 mM): 3
- Number unhatched ([2]; Table 13, 10 mM): 48
- % Inhibition ([2]; Table 13, 10 mM, relative to the control (100% MeOH)): 94%
- effect on egg hatching of Helicoverpa armigera (words) ([2]; concentrations below 1 mM): No inhibition was recorded
- effect on egg hatching of Plutella xylostella (words) (Plutella xylostella eggs [3]; 0.1 and 0.01 mM): no observable effects on egg hatching
- effect on egg hatching of Plutella xylostella (words) (Plutella xylostella eggs [3]; 10 and 1 mM, listed as 6,6′-dimethyl-2,2′dipyridyl): effective at inhibiting egg hatching
- effect on egg hatching of Plutella xylostella (words) (Plutella xylostella eggs [3]; [10]): strong ovicidal effects
- Ovicidal activity % (Plutella xylostella eggs [3]; Plutella (P), 1 mM): 100.00%
- Activity class 0 = inactive 1 = low 2 = med 3 = high (Plutella xylostella eggs [3]; Plutella (P), listed as of 1 mM): 2 (a pLD50 value between 3 and 4 is considered moderately active (Class 2))
- Number hatched (Plutella xylostella eggs [3]; [11]): 11
- Number unhatched (Plutella xylostella eggs [3]; [11]): 6
- % Inhibition (Plutella xylostella eggs [3]; Table 9, 0.001 mM, relative to control (100% MeOH)): 0%
- Number hatched (Plutella xylostella eggs [3]; [12]): 13
- Number unhatched (Plutella xylostella eggs [3]; [12]): 7
- % Inhibition (Plutella xylostella eggs [3]; Table 9, 0.01 mM, relative to control (100% MeOH)): 0%
- Number hatched (Plutella xylostella eggs [3]; [13]): 23
- Number unhatched (Plutella xylostella eggs [3]; [13]): 29
- % Inhibition (Plutella xylostella eggs [3]; Table 9, 0.1 mM, relative to control (100% MeOH)): 0%
- Number hatched (Plutella xylostella eggs [3]; [14]): 0
- Number unhatched (Plutella xylostella eggs [3]; [14]): 26
- % Inhibition (Plutella xylostella eggs [3]; Table 9, 1 mM, relative to control (100% MeOH)): 100%
- Number hatched (Plutella xylostella eggs [3]; [15]): 0
- Number unhatched (Plutella xylostella eggs [3]; [15]): 79
- % Inhibition (Plutella xylostella eggs [3]; Table 9, 10 mM, relative to control (100% MeOH)): 100%
- Number hatched (Plutella xylostella eggs [3]; [16]): 23
- Number unhatched (Plutella xylostella eggs [3]; [16]): 4
- % Inhibition (Plutella xylostella eggs [3]; Table 10, eggs laid on cloth, 0.01 mM, relative to controls): 12%
- Number hatched (Plutella xylostella eggs [3]; [17]): 49
- Number unhatched (Plutella xylostella eggs [3]; [17]): 0
- % Inhibition (Plutella xylostella eggs [3]; Table 10, eggs laid on cloth, 0.1 mM, relative to controls): 0%
- Number hatched (Plutella xylostella eggs [3]; [18]): 0
- Number unhatched (Plutella xylostella eggs [3]; [18]): 23
- % Inhibition (Plutella xylostella eggs [3]; Table 10, eggs laid on cloth, 1 mM, relative to controls): 100%
- Number hatched (Plutella xylostella eggs [3]; [19]): 0
- Number unhatched (Plutella xylostella eggs [3]; [19]): 53
- % Inhibition (Plutella xylostella eggs [3]; Table 10, eggs laid on cloth, 10 mM, relative to controls): 100%
- Number hatched (Plutella xylostella eggs [3]; [20]): 92
- Number unhatched (Plutella xylostella eggs [3]; [20]): 1
- % Inhibition (Plutella xylostella eggs [3]; Table 11, eggs laid on parafilm, 0.01 mM, relative to controls): 0%
- Number hatched (Plutella xylostella eggs [3]; [21]): 65
- Number unhatched (Plutella xylostella eggs [3]; [21]): 11
- % Inhibition (Plutella xylostella eggs [3]; Table 11, eggs laid on parafilm, 0.1 mM, relative to controls): 7%
- Number hatched (Plutella xylostella eggs [3]; [22]): 0
- Number unhatched (Plutella xylostella eggs [3]; [22]): 63
- % Inhibition (Plutella xylostella eggs [3]; Table 11, eggs laid on parafilm, 1 mM, relative to controls): 100%
- Number hatched (Plutella xylostella eggs [3]; [23]): 0
- Number unhatched (Plutella xylostella eggs [3]; [23]): 106
- % Inhibition (Plutella xylostella eggs [3]; Table 11, eggs laid on parafilm, 10 mM, relative to controls): 100%
- Ovicidal activity % ([4]; 0.1 mM): 0.00%
- Ovicidal activity % ([4]; 10 mM): 100.00%
- Activity class 0 = inactive 1 = low 2 = med 3 = high ([4]; listed as of 0.1 mM): 2 (a pLD50 value between 3 and 4 is considered moderately active (Class 2))
- Activity class 0 = inactive 1 = low 2 = med 3 = high ([4]; listed as of 10 mM): 2 (a pLD50 value between 3 and 4 is considered moderately active (Class 2))
- egg hatching in the louse (B. ovis eggs; 10 or 1 minute exposure): completely inhibited
- Number hatched in different replicates (B. ovis eggs; 1 minute exposure): Rep 1. 0; also recorded: Rep 2. 0
- % Inhibition (B. ovis eggs; 1 minute exposure): 100%
- Number unhatched (B. ovis eggs; 1 minute exposure): 10
- Number hatched in different replicates (B. ovis eggs; 10 minute exposure): Rep 1. 0; also recorded: Rep 2. 0
- % Inhibition (B. ovis eggs; 10 minute exposure): 100%
- Number unhatched (B. ovis eggs; 10 minute exposure): 10
